In assay [1] the target is EGFR D770-N771 ins NPG kinase (Homo sapiens (Human), UniProt P00533, INS770NPG). Nature of the assay: In-vitro enzyme experiment 1 (HTRF kinase assay), D770-N771 ins NPG kinase. The format is biochemical. In general terms: In TR-FRET formats the signal depends on donor and acceptor labels being close together.
In the next assay the test system is HCC827 EGFR-Del19. The assay is described as follows: Cell proliferation inhibition experiment (CCK-8), HCC827. The note with it: Homo sapiens, 72 h. In kind it is cell-based. From the text:
(§1) Inhibition rate %=[(A0−AS)/(A0−AC)]×100%.

The subject of the next assay is PC-9 EGFR-Del19. The assay is described as follows: Cell proliferation inhibition experiment (CCK-8), PC-9. The format is cell-based. The note with it: Homo sapiens, 72 h.
From the text: as §1

In assay [2] the test system is KC-0178:NCI-1975 EGFR-L858R/T790M/C797S. The assay is described as follows: Cell proliferation inhibition experiment (CCK-8), KC-0178. The format is cell-based. The note with it: Homo sapiens, 72 h.
From the text: as §1

The next assay deals with A549 EGFR-WT. Nature of the assay: Cell proliferation inhibition experiment (CCK-8), A549. The note with it: Homo sapiens, A549, 72 h, read-out: cell proliferation inhibition IC50 (μM) A549, 72 h, CCK-8.
Assay [3] deals with KC-1474:PC-9 EGFR-Del19/T790M/C797S. The assay is described as follows: Cell proliferation inhibition experiment (CCK-8), KC-1474. In kind it is cell-based. The note with it: Homo sapiens, 72 h.
From the text: as §1

The next assay deals with H1975 EGFR-L858R/T790M. The assay is described as follows: Cell proliferation inhibition experiment (CCK-8), H1975. In kind it is cell-based. The note with it: Homo sapiens, NCI-H1975, 72 h.
From the text: as §1

The subject of assay [4] is KC-1362 BaF3-EGFR D770-N771 ins NPG cells. The assay is described as follows: Anti-proliferative activity on KC-1362 BaF3-EGFR D770-N771 ins NPG cells. The format is cell-based. The note with it: Ba/F3 EGFR.
Assay [5] deals with EGFR (D770-N771 ins NPG T790M) kinase (Homo sapiens (Human), UniProt P00533, INS770NPG/T790M). Nature of the assay: In-vitro enzyme experiment 1 (HTRF kinase assay), EGFR D770-N771 ins NPG T790M. The format is biochemical. On the procedure: The specific experiment was as follows: • 1. Preparation of 1× concentration kinase buffer • 1 volume of 5 times concentration of an enzyme buffer diluted with 4 volumes of distilled water; 5 mM magnesium chloride; 1 mM DTT; and 1 mM MnCl2. • 2. Test method of activity of compound • a) a compound diluent was transferred to each well of an assay plate (784075, Greiner) using Echo 550; • b) the assay plate was sealed and centrifuged at 1,000 g for 1 min; • c) 2×EGFR (D770-N771 ins NPG T790M) was prepared in a 1× kinase buffer; • d) 5 μl of the 2×EGFR (D770-N771 ins NPG T790M) was added to a 384-well assay plate (784075, Greiner); • e) the assay plate was centrifuged at 1,000 g for 30 s and incubated at room temperature for 10 min; • f) 2× TK-substrate-biotin (2 μM) and ATP were added to the 1× kinase buffer and mixed; • g) the reaction was started after adding 5 μl of the TK-substrate-biotin (2 μM) and ATP mixture; • h) the assay plate was centrifuged at 1,000 g for 30 s; and the assay plate was sealed and incubated at room temperature for 40 min; • i) 4× Sa-XL 665 was prepared in an HTRF detection buffer; • j) 5 μl of the Sa-XL 665 and 5 μl of a TK-antibody-cryptate were added to each well of the assay plate; • k) the assay plate was centrifuged at 1,000 g for 30 s and incubated at room temperature for 1 h; and • l) fluorescence signals at 615 nm (cryptate) and 665 nm (XL665) were read on an Envision 2104 reader. • 3. Data analysis • 3.1 Calculation of ratio (665/615 nm) of each well • 3.2 Calculation of inhibition rate
Sequence of EGFR (D770-N771 ins NPG T790M) kinase (P00533 other isoform, or with tags, fused parts or gaps T790M/del 1-668/ins NPG behind 770 limits assumed): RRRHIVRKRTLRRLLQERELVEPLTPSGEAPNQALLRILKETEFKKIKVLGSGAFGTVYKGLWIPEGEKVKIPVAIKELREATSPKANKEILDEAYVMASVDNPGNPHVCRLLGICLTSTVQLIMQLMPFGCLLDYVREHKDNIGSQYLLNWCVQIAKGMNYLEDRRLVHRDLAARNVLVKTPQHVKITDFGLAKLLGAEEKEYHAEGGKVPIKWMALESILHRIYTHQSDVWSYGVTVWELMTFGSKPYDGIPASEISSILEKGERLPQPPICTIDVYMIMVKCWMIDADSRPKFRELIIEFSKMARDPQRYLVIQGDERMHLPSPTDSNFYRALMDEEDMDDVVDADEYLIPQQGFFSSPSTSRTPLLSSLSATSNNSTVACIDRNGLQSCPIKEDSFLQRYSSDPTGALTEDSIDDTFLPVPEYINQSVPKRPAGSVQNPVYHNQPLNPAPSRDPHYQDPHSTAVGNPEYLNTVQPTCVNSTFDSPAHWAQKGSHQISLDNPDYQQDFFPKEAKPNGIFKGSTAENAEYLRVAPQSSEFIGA
[formula] • 3.3 Calculation of IC50 value of compound and drawing dose-effect curve of compound • IC50 values were calculated using GraphPad 6.0 by applying a non-linear regression curve (dose-effect relationship-variable slope) of the logarithm of the compound concentration versus the inhibition rate.
Y=lowest value+(highest value−lowest value)/(1+10^((Log IC50−X)×slope)) • X: logarithm of inhibitor concentration; and Y: inhibition rate. • 3.4 Double test report • 3.4.1 After one tester completed a report, another tester again checked the report to ensure that data analysis was correct. • 3.4.2 The data was exported from the software and manually analyzed. • 3.4.2.1 The rate was converted into the inhibition rate. All the IC50 values were first calculated with the inhibition rate using Prism GraphPad 6.0. • 3.4.2.2 Then the IC50 value was recalculated using the ratio to check the accuracy of the analysis. • 3.4.3 The number of all the compounds was ensured to be correct.

Sequence of EGFR D770-N771 ins NPG kinase (P00533 other isoform, or with tags, fused parts or gaps del 1-668/ins NPG behind 770 limits assumed): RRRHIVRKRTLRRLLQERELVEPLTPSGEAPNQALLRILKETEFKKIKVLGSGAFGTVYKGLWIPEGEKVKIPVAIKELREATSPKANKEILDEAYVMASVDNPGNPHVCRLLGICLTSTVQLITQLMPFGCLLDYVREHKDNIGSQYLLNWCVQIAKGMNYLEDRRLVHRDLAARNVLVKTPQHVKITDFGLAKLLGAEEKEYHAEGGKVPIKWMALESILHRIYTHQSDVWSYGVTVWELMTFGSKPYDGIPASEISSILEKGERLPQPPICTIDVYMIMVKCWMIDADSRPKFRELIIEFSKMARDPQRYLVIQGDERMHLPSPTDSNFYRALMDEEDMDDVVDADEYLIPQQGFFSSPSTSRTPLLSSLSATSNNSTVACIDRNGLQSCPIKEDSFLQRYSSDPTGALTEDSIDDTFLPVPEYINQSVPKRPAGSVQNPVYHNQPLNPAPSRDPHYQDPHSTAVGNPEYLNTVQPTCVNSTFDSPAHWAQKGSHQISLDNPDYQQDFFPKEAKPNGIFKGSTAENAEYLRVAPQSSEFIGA

`CN1CCN(c2ccc(Nc3nc(N[C@H]4CC[C@H](CO)CC4)c4c(C(=O)c5ccc(F)cc5)c[nH]c4n3)cc2)CC1` [Example 42]: the IC50 is 0.00444 µM in [1]; 0.1 to 1 µM in the assay with HCC827 EGFR-Del19; < 0.1 µM with PC-9 EGFR-Del19; 1 to 2 µM in assay [2]; 1 to 2 µM in the assay on A549 EGFR-WT; < 0.1 µM in [3]. Besides, the results for the IC50 (in the assay with H1975 EGFR-L858R/T790M; in assay [4]) were 0.1 to 1 µM and 0.035 µM, respectively.

Turning to `O=C(c1ccc(F)cc1)c1c[nH]c2nc(Nc3ccc(N4CCOCC4)cc3)nc(N[C@H]3CC[C@H](CO)CC3)c12` [Example 79], the IC50 in the assay with HCC827 EGFR-Del19 was < 0.1 µM; in the assay with PC-9 EGFR-Del19, 0.1 to 1 µM; in assay [2], < 0.1 µM; with A549 EGFR-WT, 0.1 to 1 µM; in the assay on H1975 EGFR-L858R/T790M it was 0.1 to 1 µM.

As for `C=CC(=O)N1CC[C@@H](Nc2nc(Nc3cnn(C)c3)nc3[nH]cc(C(=O)c4ccc(F)cc4)c23)C1` [Example 109], the IC50 is 0.003 µM in [1]; 0.1 to 1 µM in the assay with HCC827 EGFR-Del19; < 0.1 µM in the assay on PC-9 EGFR-Del19; 0.1 to 1 µM in the assay with A549 EGFR-WT; 0.00727 µM in assay [5]; 0.1 to 1 µM in the assay with H1975 EGFR-L858R/T790M. This compound had an IC50 in [4] of 0.12 µM.

(Values after patent publication US20250122202A1, “EGFR INHIBITOR, PREPARATION METHOD THEREFOR AND USE THEREOF” (SHANDONG NEW TIME PHARMACEUTICAL CO., LTD., priority 2021, published 2025).)
